Toxic doses and inconclusive results are not listed.
Test system: CD2F1 mice, L1210 leukemia ip, survival T/C
Assay: NCI In Vivo Anticancer Drug Screen. Data for tumor model L1210 Leukemia (intraperitoneal) in CD2F1 (CDF1) mice
Conditions: higher = longer survival
How it was run: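 Mice carrying a transplanted tumor received test compound or vehicle alone. The value is the measurement in the treated group divided by that in the vehicle-treated control group.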

[1] = endpoint: mean survival time, dose: 100.0 mg/kg/injection, schedule: Q04DX002 (ip), vehicle: saline with Tween-80
[2] = endpoint: mean survival time, dose: 200.0 mg/kg/injection, schedule: Q04DX002 (ip), vehicle: saline with Tween-80
[3] = endpoint: mean survival time, dose: 400.0 mg/kg/injection, schedule: Q04DX002 (ip), vehicle: saline with Tween-80
[4] = endpoint: mean survival time, dose: 100.0 mg/kg/injection, schedule: Q01DX009 (ip), vehicle: saline with Tween-80
[5] = endpoint: mean survival time, dose: 200.0 mg/kg/injection, schedule: Q01DX009 (ip), vehicle: saline with Tween-80
[6] = endpoint: mean survival time, dose: 400.0 mg/kg/injection, schedule: Q01DX009 (ip), vehicle: saline with Tween-80
[7] = endpoint: mean survival time, dose: 25.0 mg/kg/injection, schedule: Q01DX009 (ip), vehicle: saline with Tween-80
[8] = endpoint: mean survival time, dose: 50.0 mg/kg/injection, schedule: Q01DX009 (ip), vehicle: saline with Tween-80
[9] = endpoint: mean survival time, dose: 100.0 mg/kg/injection, schedule: Q04DX003 (ip), vehicle: saline with Tween-80
[10] = endpoint: mean survival time, dose: 200.0 mg/kg/injection, schedule: Q04DX003 (ip), vehicle: saline with Tween-80
[11] = endpoint: mean survival time, dose: 400.0 mg/kg/injection, schedule: Q04DX003 (ip), vehicle: saline with Tween-80

CN1CC(NC(=O)N(CCCl)N=O)CC2c3cccc4c3c(cn4N=O)CC21 (configuration not stated) was tested, and the T/C (endpoint: mean survival time, dose: 12.5 mg/kg/injection, schedule: Q01DX001 (ip), vehicle: other) was 105 % of control, the T/C (endpoint: mean survival time, dose: 25.0 mg/kg/injection, schedule: Q01DX001 (ip), vehicle: other) was 117 % of control and the T/C (endpoint: mean survival time, dose: 50.0 mg/kg/injection, schedule: Q01DX001 (ip), vehicle: other) was 121 % of control. For the same compound, the T/C (endpoint: mean survival time, dose: 200.0 mg/kg/injection, schedule: Q01DX001 (ip), vehicle: other) was 164 % of control and the T/C (endpoint: mean survival time, dose: 400.0 mg/kg/injection, schedule: Q01DX001 (ip), vehicle: other) was 289 % of control.

CC(C)(C)NC(C1=CC(C)(C)c2ccccc2C1=O)c1ccccc1 (configuration not stated) was tested, and the T/C (endpoint: median survival time, dose: 50.0 mg/kg/injection, schedule: Q01DX009 (ip), vehicle: Klucel (hydroxypropylcellulose) (HPC)) was 101 % of control, the T/C (endpoint: median survival time, dose: 100.0 mg/kg/injection, schedule: Q01DX009 (ip), vehicle: Klucel (hydroxypropylcellulose) (HPC)) was 101 % of control and the T/C (endpoint: median survival time, dose: 200.0 mg/kg/injection, schedule: Q01DX009 (ip), vehicle: Klucel (hydroxypropylcellulose) (HPC)) was 101 % of control.

In the case of Cc1cc(S(=O)(=O)c2ccc(O)c(C)c2)ccc1O, the T/C [1] is reported as 103 % of control, the T/C [2] is reported as 100 % of control and the T/C [3] is reported as 97 % of control.

With CCOC(=O)c1ccnc2ccc(O)cc12 the T/C [4] was 104 % of control, the T/C [5] was 93 % of control and the T/C [6] was 95 % of control.

COc1ccc(C(C)C(C)=O)cc1 (configuration not stated) was tested, and the T/C (endpoint: mean survival time, dose: 12.5 mg/kg/injection, schedule: Q01DX009 (ip), vehicle: saline with Tween-80) was 91 % of control, the T/C [7] was 91 % of control and the T/C [8] was 95 % of control.

For CCSC(CC(OC(C)=O)C(OC(C)=O)C(COC(C)=O)OC(C)=O)n1cnc2c(Cl)ncnc21 (configuration not stated), the T/C (endpoint: mean survival time, dose: 12.5 mg/kg/injection, schedule: Q01DX005 (ip), vehicle: other) was 98 % of control, the T/C (endpoint: mean survival time, dose: 25.0 mg/kg/injection, schedule: Q01DX005 (ip), vehicle: other) was 96 % of control and the T/C (endpoint: mean survival time, dose: 50.0 mg/kg/injection, schedule: Q01DX005 (ip), vehicle: other) was 95 % of control. For the same compound, the T/C (endpoint: mean survival time, dose: 100.0 mg/kg/injection, schedule: Q01DX005 (ip), vehicle: other) was 104 % of control and the T/C (endpoint: mean survival time, dose: 200.0 mg/kg/injection, schedule: Q01DX005 (ip), vehicle: other) was 105 % of control.

With COC(=O)c1ccccc1NC(=S)NC(=O)COc1ccccc1 the T/C [4] was 97 % of control, the T/C [5] was 95 % of control and the T/C [6] was 98 % of control.

[Cl][Pt+2][Cl].[NH-]C(C(=O)OCc1ccccc1)c1ccccc1.[NH-]C(C(=O)OCc1ccccc1)c1ccccc1 (configuration not stated) was tested, and the T/C (endpoint: median survival time, dose: 3.12 mg/kg/injection, schedule: Q04DX003 (ip), vehicle: saline) was 103 % of control, the T/C (endpoint: median survival time, dose: 6.25 mg/kg/injection, schedule: Q04DX003 (ip), vehicle: saline) was 109 % of control and the T/C (endpoint: median survival time, dose: 12.5 mg/kg/injection, schedule: Q04DX003 (ip), vehicle: saline) was 98 % of control. The T/C (endpoint: median survival time, dose: 25.0 mg/kg/injection, schedule: Q04DX003 (ip), vehicle: saline) was 101 % of control, the T/C (endpoint: median survival time, dose: 50.0 mg/kg/injection, schedule: Q04DX003 (ip), vehicle: saline) was 109 % of control and the T/C (endpoint: median survival time, dose: 100.0 mg/kg/injection, schedule: Q04DX003 (ip), vehicle: saline) was 109 % of control. The T/C (endpoint: median survival time, dose: 200.0 mg/kg/injection, schedule: Q04DX003 (ip), vehicle: saline) was 111 % of control.

With [Cl][Pt+2][Cl].[NH-]C1CCCC2CCC[N-]C12 (configuration not stated) the T/C [1] was 105 % of control, the T/C [2] was 121 % of control and the T/C [3] was 110 % of control.

CCOC(=O)NC(=O)CC#N was tested, and the T/C [9] was 101 % of control, the T/C [10] was 93 % of control and the T/C [11] was 103 % of control.

With C=C(C)[C@H]1CN[C@H](C(=O)O)[C@H]1CC(=O)O the T/C (endpoint: mean survival time, dose: 5.0 mg/kg/injection, schedule: Q01DX001 (ip), vehicle: saline) was 94 % of control, the T/C (endpoint: median survival time, dose: 0.31 mg/kg/injection, schedule: Q01DX009 (ip), vehicle: saline with Tween-80) was 103 % of control and the T/C (endpoint: median survival time, dose: 0.62 mg/kg/injection, schedule: Q01DX009 (ip), vehicle: saline with Tween-80) was 101 % of control. For the same compound, the T/C (endpoint: median survival time, dose: 1.25 mg/kg/injection, schedule: Q01DX009 (ip), vehicle: saline with Tween-80) was 100 % of control, the T/C (endpoint: median survival time, dose: 2.5 mg/kg/injection, schedule: Q01DX009 (ip), vehicle: saline with Tween-80) was 101 % of control and the T/C (endpoint: median survival time, dose: 2.5 mg/kg/injection, schedule: Q01DX009 (ip), vehicle: saline) was 96 % of control. For the same compound, the T/C (endpoint: median survival time, dose: 5.0 mg/kg/injection, schedule: Q01DX009 (ip), vehicle: saline with Tween-80) was 101 % of control, the T/C (endpoint: median survival time, dose: 5.0 mg/kg/injection, schedule: Q01DX009 (ip), vehicle: saline) was 103 % of control and the T/C (endpoint: median survival time, dose: 6.25 mg/kg/injection, schedule: Q01DX009 (ip), vehicle: saline) was 104 % of control. The T/C (endpoint: median survival time, dose: 10.0 mg/kg/injection, schedule: Q01DX009 (ip), vehicle: saline with Tween-80) was 101 % of control, the T/C (endpoint: median survival time, dose: 10.0 mg/kg/injection, schedule: Q01DX009 (ip), vehicle: saline) was 101 % of control and the T/C (endpoint: median survival time, dose: 12.5 mg/kg/injection, schedule: Q01DX009 (ip), vehicle: saline) was 108 % of control. For the same compound, the T/C (endpoint: median survival time, dose: 20.0 mg/kg/injection, schedule: Q01DX009 (ip), vehicle: saline) was 95 % of control, the T/C (endpoint: median survival time, dose: 25.0 mg/kg/injection, schedule: Q01DX009 (ip), vehicle: saline) was 97 % of control and the T/C (endpoint: median survival time, dose: 40.0 mg/kg/injection, schedule: Q01DX009 (ip), vehicle: saline) was 93 % of control. The T/C (endpoint: median survival time, dose: 50.0 mg/kg/injection, schedule: Q01DX009 (ip), vehicle: saline) was 96 % of control.

For CC1=CC2c3cccc4[nH]cc(c34)CC2N(C)C1 (configuration not stated), the T/C (endpoint: median survival time, dose: 1.25 mg/kg/injection, schedule: Q01DX009 (ip), vehicle: suspension in saline) was 101 % of control, the T/C (endpoint: median survival time, dose: 2.5 mg/kg/injection, schedule: Q01DX009 (ip), vehicle: suspension in saline) was 101 % of control and the T/C (endpoint: median survival time, dose: 5.0 mg/kg/injection, schedule: Q01DX009 (ip), vehicle: suspension in saline) was 101 % of control. For the same compound, the T/C (endpoint: median survival time, dose: 10.0 mg/kg/injection, schedule: Q01DX009 (ip), vehicle: suspension in saline) was 101 % of control and the T/C (endpoint: median survival time, dose: 20.0 mg/kg/injection, schedule: Q01DX009 (ip), vehicle: suspension in saline) was 98 % of control.

CC1CCC(C(O)(C(=O)c2ccccc2)c2ccccc2)C(=O)C1 (configuration not stated) was tested, and the T/C [4] was 100 % of control, the T/C [5] was 98 % of control and the T/C [6] was 98 % of control.

In the case of Nc1nc(=O)n(CCCOc2cccc(NC(=O)c3ccccc3)c2)cc1-c1ccc(Cl)c(Cl)c1, the T/C (endpoint: mean survival time, dose: 100.0 mg/kg/injection, schedule: Q01DX001 (ip), vehicle: saline with Tween-80) is reported as 91 % of control, the T/C (endpoint: mean survival time, dose: 200.0 mg/kg/injection, schedule: Q01DX001 (ip), vehicle: saline with Tween-80) is reported as 94 % of control and the T/C (endpoint: mean survival time, dose: 400.0 mg/kg/injection, schedule: Q01DX001 (ip), vehicle: saline with Tween-80) is reported as 97 % of control.

In the case of CCCCN1CCN(CCCC)C1CCC, the T/C [7] is reported as 98 % of control, the T/C [8] is reported as 102 % of control and the T/C [4] is reported as 96 % of control.

For COc1ccc2[nH]c3c(c2c1)CSc1ccccc1-3, the T/C (endpoint: mean survival time, dose: 100.0 mg/kg/injection, schedule: Q04DX003 (ip), vehicle: acetone) was 94 % of control, the T/C (endpoint: mean survival time, dose: 200.0 mg/kg/injection, schedule: Q04DX003 (ip), vehicle: acetone) was 105 % of control and the T/C (endpoint: mean survival time, dose: 400.0 mg/kg/injection, schedule: Q04DX003 (ip), vehicle: acetone) was 100 % of control.

In the case of [I-].[Ni+2].[O-]/N=C/c1ccccn1.[O-]/N=C/c1ccccn1.[O-]/N=C/c1ccccn1, the T/C (endpoint: mean survival time, dose: 100.0 mg/kg/injection, schedule: Q01DX001 (ip), vehicle: saline) is reported as 106 % of control.

With O=C1OC(c2ccccc2)(c2ccccc2)Cc2ccccc21 the T/C [4] was 98 % of control, the T/C [5] was 102 % of control and the T/C [6] was 102 % of control.

With Cc1onc(-c2ccccc2)c1C(=O)O the T/C [9] was 101 % of control, the T/C [10] was 93 % of control and the T/C [11] was 89 % of control.

For COC(C(N)=O)(c1ccccc1)C(F)(F)F (configuration not stated), the T/C [4] was 101 % of control, the T/C [9] was 102 % of control and the T/C [5] was 105 % of control. The T/C [10] was 100 % of control, the T/C [6] was 94 % of control and the T/C [11] was 89 % of control.

O=C1/C(=C/c2ccccc2)Cc2ccccc21 was tested, and the T/C [4] was 94 % of control, the T/C [5] was 91 % of control and the T/C [6] was 89 % of control.

CCCCCCCCCCSCC(N)C(=O)O (configuration not stated) was tested, and the T/C (endpoint: mean survival time, dose: 25.0 mg/kg/injection, schedule: Q01DX009 (ip), vehicle: other) was 88 % of control, the T/C (endpoint: mean survival time, dose: 50.0 mg/kg/injection, schedule: Q01DX009 (ip), vehicle: other) was 88 % of control and the T/C (endpoint: mean survival time, dose: 100.0 mg/kg/injection, schedule: Q01DX009 (ip), vehicle: other) was 94 % of control. For the same compound, the T/C (endpoint: mean survival time, dose: 200.0 mg/kg/injection, schedule: Q01DX009 (ip), vehicle: other) was 94 % of control and the T/C (endpoint: mean survival time, dose: 400.0 mg/kg/injection, schedule: Q01DX009 (ip), vehicle: other) was 97 % of control.

Source: PubChem BioAssay AID256 (DTP/NCI, 2004)
